Source: patent publication US5977136A, “Tetrahydroquinolines as NMDA antagonists” (Glaxo Wellcome SpA, priority 1995, dated 1999)

Molecular target: T1, strychnine insensitive glycine binding site located on the NMDA receptor complex (Rattus norvegicus, UniProt P35439)
T1 construct: determined using the procedure of Kishimoto H. et al J. Neurochem 1981, 37, 1015-1024; from tissue
Test: biochemical
Settings: not given

Row | SMILES | Ki
1 | O=C(/C=C1\CC(C(=O)[O-])Nc2cc(Cl)ccc21)Nc1ccccc1.[Na+] (racemic) [Example 2, (+/-)(E)7-Chloro-4-Phenylcarbamoylmethylene-1,2,3,4-Tetrahydro-Quinoline-2- Carboxylic Acid Sodium Salt] | 39.8 nM

Same assay, conditions: strychnine insensitive glycine binding site; read-out: pKi (converted)

Row | SMILES | Ki
2 | Nc1ccc(NC(=O)/C=C2\CC(C(=O)O)Nc3cc(Cl)cc(Cl)c32)cc1 (racemic) [Example 8, (+/-)(E)-4-(4-Amino-Phenylcarbamoylmethylene)-5,7-Dichloro-1,2,3,4-Tetrahydro-Quinoline-2-Carboxylic Acid] | 15.8 nM
3 | CC(=O)Nc1cccc(NC(=O)/C=C2\CC(C(=O)O)Nc3cc(Cl)cc(Cl)c32)c1 (racemic) [Example 6, (+/-)(E)-4-(3-Acetylamino-Phenylcarbamoylmethylene)-5,7-Dichloro-1,2,3,4-Tetrahydro-Quinoline-2-Carboxylic Acid] | 15.8 nM
4 | O=C(O)Cc1ccc(NC(=O)/C=C2\CC(C(=O)O)Nc3cc(Cl)cc(Cl)c32)cc1 (racemic) [Example 15, (+/-)(E)-4-(4-Carboxymethyl-Phenylcarbamoylmethylene)-5,7-Dichloro-1,2,3,4-Tetrahydro-Quinoline-2-Carboxylic Acid] | 19.1 nM
5 | CC(C)C(=O)Nc1ccc(NC(=O)/C=C2\CC(C(=O)O)Nc3cc(Cl)cc(Cl)c32)cc1 (racemic) [Example 12, (+/-)(E)-5,7-Dichloro-4-[4(Isobutyrylamino)Phenylcarbomoylmethylene]-1,2,3,4-Tetrahydro-Quinoline-2-Carboxylic Acid] | 15.8 nM
6 | CC(C)C(=O)NCc1ccc(NC(=O)/C=C2\CC(C(=O)O)Nc3cc(Cl)cc(Cl)c32)cc1 (racemic) [Example 13] | 15.8 nM
7 | CC(=O)NCCc1ccc(NC(=O)/C=C2\CC(C(=O)O)Nc3cc(Cl)cc(Cl)c32)cc1 (racemic) [Example 18, (+/-)(E)-5,7-Dichloro-4-[4-(2-Acetylamino-Ethyl)Phenylcarbamoylmethylene]-1,2,3,4-Tetrahydro-Quinoline-2-Carboxylic Acid] | 12.6 nM
8 | O=C(/C=C1\CC(C(=O)O)Nc2cc(Cl)cc(Cl)c21)Nc1ccc(CN2CCOCC2)cc1 (racemic) [Example 14, (+/-)(E)-5,7-Dichloro-4-(4-Morpholin-4-Ylmethyl-Phenylcarbamoylmethylene)-1,2,3,4-Tetrahydro-Quinoline-2-Carboxylic Acid] | 7.94 nM
9 | O=C(/C=C1\CC(C(=O)O)Nc2cc(Br)cc(Br)c21)Nc1ccccc1 (racemic) [Example 21, (+/-)-(E)-5,7-Dibromo-4-Phenylcarbamoylmethylene-1,2,3,4-Tetrahydroquinoline-2-Carboxylic Acid] | 26.3 nM
10 | O=CNCc1ccc(NC(=O)/C=C2\CC(C(=O)O)Nc3cc(Cl)cc(Cl)c32)cc1 (racemic) [Example 10, (+/-)(E)-5,7-Dichloro-4-[4(Formylaminomethyl)Phenylcarbomoylmethylene]-1,2,3,4-Tetrahydro-Quinoline-2-Carboxylic Acid] | 5.01 nM
11 | O=C(/C=C1\CC(C(=O)O)Nc2cc(Cl)cc(Cl)c21)Nc1cccc(Cl)c1 (racemic) [Example 7, (+/-)(E)-5,7-Dichloro-4-[3-(Chloro)Phenylcarbamoylmethylene]-1,2,3,4-Tetrahydro-Quinoline-2-Carboxylic Acid] | 39.8 nM
12 | CC(C)C(=O)NCCc1ccc(NC(=O)/C=C2\CC(C(=O)O)Nc3cc(Cl)cc(Cl)c32)cc1 (racemic) [Example 17, (+/-)(E)-5,7-Dichloro-4-[4-(2-Isobutyrylamino-Ethyl)Phenylcarbamoylmethylene]-1,2,3,4-Tetrahydro-Quinoline-2-Carboxylic Acid] | 12.6 nM
13 | CC(=O)Nc1ccc(NC(=O)/C=C2\CC(C(=O)O)Nc3cc(Cl)cc(Cl)c32)cc1 (racemic) [Example 5, (+/-)(E)-4-(4-Acetylamino-Phenylcarbamoylmethylene)-5,7-Dichloro-1,2,3,4-Tetrahydro-Quinoline-2-Carboxylic Acid] | 7.94 nM
14 | O=C(/C=C1\CC(C(=O)[O-])Nc2cc(Cl)cc(Cl)c21)Nc1ccccc1.[Na+] (racemic) [Sodium Salt] | 6.31 nM
15 | CC(C)CC(=O)Nc1ccc(NC(=O)/C=C2\CC(C(=O)O)Nc3cc(Cl)cc(Cl)c32)cc1 (racemic) [Example 19, (+/-)(E)-5,7-Dichloro-4-[4-(3-Methyl-Butyrylamino)-Phenylcarbamoylmethylene]-1,2,3,4-Tetrahydro-Quinoline-2-Carboxylic Acid] | 18.6 nM
16 | NC(=O)NCc1ccc(NC(=O)/C=C2\CC(C(=O)O)Nc3cc(Cl)cc(Cl)c32)cc1 (racemic) [Example 9, (+/-)(E)-5,7-Dichloro-4-[4(Ureidomethyl)Phenylcarbamoylmethylene]-1,2,3,4-Tetrahydro-Quinoline-2-Carboxylic Acid] | 3.98 nM
17 | NC(=O)Cc1ccc(NC(=O)/C=C2\CC(C(=O)O)Nc3cc(Cl)cc(Cl)c32)cc1 (racemic) [Example 16, (+/-)(E)-5,7-Dichloro-4-(4-Carbamoylmethyl-Phenylcarbamoylmethylene)-1,2,3,4-Tetrahydro-Quinoline-2-Carboxylic Acid] | 6.61 nM
18 | CC(=O)NCc1ccc(NC(=O)/C=C2\CC(C(=O)O)Nc3cc(Cl)cc(Cl)c32)cc1 (racemic) [Example 11, (+/-)(E)-5,7-Dichloro-4-[4(Acetylaminomethyl)Phenylcarbomoylmethylene]-1,2,3,4-Tetrahydro-Quinoline-2-Carboxylic Acid] | 5.01 nM

System: NMDA induced convulsions in mice
Test: Inhibition of NMDA induced convulsions in the mouse (procedure of Chiamulera C et al.)
Type: in vivo
Settings: iv, read-out: ED50 (dose required to protect 50% of the animals from the convulsive action of the NMDA)
Description: In this test the ability of the compound when administered iv to inhibit the generalized seizures induced by an intracerebroventricular injection of NMDA in mice was examined at a number of dose levels.

Row | SMILES | ED50
19 | O=C(/C=C1\CC(C(=O)[O-])Nc2cc(Cl)cc(Cl)c21)Nc1ccccc1.[Na+] (racemic) | 1 mg/kg

Same assay, conditions: mice, compound iv, generalized seizures induced by intracerebroventricular injection of NMDA, read-out: ED50 (dose required to protect 50% of the animals from the convulsive action of the NMDA)

Row | SMILES | ED50
20 | CC(=O)Nc1ccc(NC(=O)/C=C2\CC(C(=O)O)Nc3cc(Cl)cc(Cl)c32)cc1 (racemic) [Example 5, (+/-)(E)-4-(4-Acetylamino-Phenylcarbamoylmethylene)-5,7-Dichloro-1,2,3,4-Tetrahydro-Quinoline-2-Carboxylic Acid] | 0.2 mg/kg
21 | O=C(/C=C1\CC(C(=O)[O-])Nc2cc(Cl)ccc21)Nc1ccccc1.[Na+] (racemic) [Example 2, (+/-)(E)7-Chloro-4-Phenylcarbamoylmethylene-1,2,3,4-Tetrahydro-Quinoline-2- Carboxylic Acid Sodium Salt] | 0.2 mg/kg
